Activity calls are given as the source filed them. The rule behind the calls is not given here.
Legend:
Mus musculus [1] = experiment: (§1) Antiinflammatory activity in collagen/complete freund's adjuvant-induced arthritis DBA/1 mouse model assessed as IL-1 beta level in rear right paw at 50 mg/kg, po administered via gavage starting from day 21 to day 41 post collagen/CFA challenge and measured on day 42 measured per mg protein (reference value: 3.15 pg); assay type: functional; settings: time 21 day
[2] = Half life in CD-1 mouse at 2 mg/kg, iv; assay type: ADME, organism-based; settings: in vivo
CYP3A4 [3] = target: T1, CYP3A4 (Homo sapiens, UniProt P08684); experiment: Inhibition of human CYP3A4 at 10 uM using testosterone as substrate relative to control; assay type: ADME; settings: probe testosterone
T1 sequence (P08684 whole entry, the tested form may be a part): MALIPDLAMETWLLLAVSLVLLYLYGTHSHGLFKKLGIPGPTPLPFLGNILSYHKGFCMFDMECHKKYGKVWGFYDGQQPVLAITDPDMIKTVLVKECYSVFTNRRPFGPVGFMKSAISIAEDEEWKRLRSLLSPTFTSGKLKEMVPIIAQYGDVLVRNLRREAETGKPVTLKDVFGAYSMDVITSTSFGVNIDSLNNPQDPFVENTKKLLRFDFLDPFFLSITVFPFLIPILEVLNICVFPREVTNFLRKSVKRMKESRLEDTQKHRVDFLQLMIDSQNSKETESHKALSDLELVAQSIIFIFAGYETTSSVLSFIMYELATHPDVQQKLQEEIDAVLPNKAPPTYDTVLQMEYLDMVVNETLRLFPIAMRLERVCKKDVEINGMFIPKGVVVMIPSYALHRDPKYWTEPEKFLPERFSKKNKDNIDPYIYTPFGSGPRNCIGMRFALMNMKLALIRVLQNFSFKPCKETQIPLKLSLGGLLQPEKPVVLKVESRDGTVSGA

[4] = target: Bromodomain-containing protein 4 (Homo sapiens, UniProt O60885); experiment: Inhibition of human full-length recombinant N-terminal His-tagged BRD4 (2 to 1362 residues) expressed in Sf9 cells using histone H4 peptide containing acetylated lysine residues as substrate preincubated with enzyme for 30 mins followed by incubation with substrate for 30 mins by Alphascreen assay […]
Kasumi 1 [5] = experiment: Antiproliferative activity against human Kasumi-1 cells after 72 hrs by Celltiter-Glo assay; assay type: functional, cell-based; settings: Kasumi 1, 72 h
Mus musculus [6] = experiment: Antiarthritic activity in collagen/complete freund's adjuvant-induced arthritis DBA/1 mouse model assessed as paw thickness at 50 mg/kg, po administered via gavage starting from day 21 to day 41 post collagen/CFA challenge and measured on day 21 by caliper analysis (reference value: 2.48 millimeter); assay type: functional; settings: time 21 day
Mus musculus [7] = experiment: Antiarthritic activity in collagen/complete freund's adjuvant-induced arthritis DBA/1 mouse model assessed as hind paw histological score at 50 mg/kg, po administered via gavage starting from day 21 to day 41 post collagen/CFA challenge and measured on day 42 by hematoxylin-eosin staining based assay (reference value: 2.66 +/- 0.44 au); assay type: functional; settings: time 21 day
[8] = target: Voltage-gated inwardly rectifying potassium channel KCNH2 (Homo sapiens, UniProt Q12809); experiment: Inhibition of human ERG by manual patch clamp assay
Chain of Voltage-gated inwardly rectifying potassium channel KCNH2 (Q12809 whole entry, the tested form may be a part): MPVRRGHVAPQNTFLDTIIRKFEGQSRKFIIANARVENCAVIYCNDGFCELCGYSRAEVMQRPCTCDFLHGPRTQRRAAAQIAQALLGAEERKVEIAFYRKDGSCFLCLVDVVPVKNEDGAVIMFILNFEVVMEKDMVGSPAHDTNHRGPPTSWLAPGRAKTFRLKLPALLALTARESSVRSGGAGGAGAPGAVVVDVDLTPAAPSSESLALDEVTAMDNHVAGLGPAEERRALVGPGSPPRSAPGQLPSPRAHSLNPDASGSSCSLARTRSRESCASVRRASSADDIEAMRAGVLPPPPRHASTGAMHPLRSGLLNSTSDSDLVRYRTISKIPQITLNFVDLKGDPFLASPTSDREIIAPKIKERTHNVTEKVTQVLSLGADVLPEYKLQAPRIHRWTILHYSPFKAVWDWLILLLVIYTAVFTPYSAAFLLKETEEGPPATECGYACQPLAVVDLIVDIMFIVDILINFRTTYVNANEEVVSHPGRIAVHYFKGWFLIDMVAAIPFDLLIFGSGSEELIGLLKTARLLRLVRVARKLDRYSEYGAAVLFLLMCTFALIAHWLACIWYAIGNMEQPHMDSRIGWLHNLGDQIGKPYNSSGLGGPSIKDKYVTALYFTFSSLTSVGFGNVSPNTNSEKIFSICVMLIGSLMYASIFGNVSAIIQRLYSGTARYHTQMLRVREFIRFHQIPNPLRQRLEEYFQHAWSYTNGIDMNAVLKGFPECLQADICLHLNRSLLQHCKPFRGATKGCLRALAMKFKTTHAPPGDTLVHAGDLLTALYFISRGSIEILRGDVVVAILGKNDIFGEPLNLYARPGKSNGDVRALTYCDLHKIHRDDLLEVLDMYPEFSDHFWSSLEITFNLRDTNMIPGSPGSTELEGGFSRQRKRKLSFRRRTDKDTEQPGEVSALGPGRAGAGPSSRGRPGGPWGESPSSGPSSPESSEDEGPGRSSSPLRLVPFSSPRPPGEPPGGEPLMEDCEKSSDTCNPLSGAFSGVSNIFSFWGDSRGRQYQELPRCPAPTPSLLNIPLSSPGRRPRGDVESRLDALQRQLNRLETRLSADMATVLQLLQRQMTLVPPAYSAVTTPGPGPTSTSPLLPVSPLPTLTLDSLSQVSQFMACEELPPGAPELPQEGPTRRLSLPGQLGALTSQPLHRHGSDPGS

[9] = target: T2, Bromodomain-containing protein 3 (Homo sapiens, UniProt Q15059); experiment: Binding affinity to human partial length BRD3 (BD1) (P24 to E144 residues) expressed in bacterial expression system by BROMOscan assay
T2 sequence (Q15059 whole entry, the tested form may be a part): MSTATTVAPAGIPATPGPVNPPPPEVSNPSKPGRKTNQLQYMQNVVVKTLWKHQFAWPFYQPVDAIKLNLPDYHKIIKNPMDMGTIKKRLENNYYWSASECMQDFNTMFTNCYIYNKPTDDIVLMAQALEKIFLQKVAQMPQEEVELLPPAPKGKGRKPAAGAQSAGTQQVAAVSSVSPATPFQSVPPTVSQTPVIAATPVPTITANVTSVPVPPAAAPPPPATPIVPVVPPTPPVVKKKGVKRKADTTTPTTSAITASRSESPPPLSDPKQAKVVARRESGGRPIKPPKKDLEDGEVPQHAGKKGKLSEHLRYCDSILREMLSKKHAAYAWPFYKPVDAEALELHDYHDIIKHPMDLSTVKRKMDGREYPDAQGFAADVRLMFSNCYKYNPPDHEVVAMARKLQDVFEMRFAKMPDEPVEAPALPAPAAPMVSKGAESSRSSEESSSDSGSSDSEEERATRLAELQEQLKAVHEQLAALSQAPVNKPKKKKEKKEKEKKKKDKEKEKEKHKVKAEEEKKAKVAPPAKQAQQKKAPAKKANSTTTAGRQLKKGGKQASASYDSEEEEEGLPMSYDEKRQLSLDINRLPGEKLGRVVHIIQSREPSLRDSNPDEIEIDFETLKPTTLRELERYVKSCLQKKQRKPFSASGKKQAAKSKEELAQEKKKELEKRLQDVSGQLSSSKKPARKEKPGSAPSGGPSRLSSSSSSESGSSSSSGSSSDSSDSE

Kasumi 1 [10] = experiment: Antitumor activity against human Kasumi-1 cells xenografted in CB17 SCID mouse assessed as tumor weight at 10 mg/kg, po administered for 25 days (reference value: 2.57 +/- 0.27 g); assay type: functional; settings: time 25 day
[11] = Toxicity in CD1 mouse assessed as clinical abnormalities at 50 to 100 mg/kg, po administered once daily for 5 days and observed for 5 days after last dose; assay type: organism-based; settings: in vivo, 120 h, dose 50-100 mg/kg, time 5 day
[12] = Toxicity in CD1 mouse assessed as weight loss at 50 to 100 mg/kg, po administered once daily for 5 days and observed for 5 days after last dose; assay type: organism-based; settings: in vivo, 120 h, dose 50-100 mg/kg, time 5 day
Mus musculus [13] = experiment: Antiarthritic activity in collagen/complete freund's adjuvant-induced DBA/1 mouse model of arthritis assessed as reduction in joint inflammation at 50 mg/kg, po administered via gavage starting from day 21 to day 41 post collagen/CFA challenge and measured on day 42 by H&E staining based analysis; assay type: functional, organism-based; settings: time 21.0 day
Kasumi 1 [14] = experiment: Antitumor activity against human Kasumi-1 cells xenografted in CB17 SCID mouse assessed as tumor volume at 10 mg/kg, po QD for 29 days (reference value: 1734 +/- 220 mm3); assay type: functional; settings: time 29 day
[15] = Volume of distribution at steady state in CD-1 mouse at 2 mg/kg, iv; assay type: ADME, organism-based; settings: in vivo, read-out: Vdss
Kasumi 1 [16] = experiment: Antitumor activity against human Kasumi-1 cells xenografted in CB17 SCID mouse assessed as tumor weight at 40 mg/kg, po QD for 25 days (reference value: 2.57 +/-0.27 g); assay type: functional; settings: time 25 day
CYP2D6 = CYP2D6 (Homo sapiens, UniProt P10635); experiment: Inhibition of human CYP2D6 at 10 uM relative to control; assay type: ADME
Chain of CYP2D6 (P10635 whole entry, the tested form may be a part): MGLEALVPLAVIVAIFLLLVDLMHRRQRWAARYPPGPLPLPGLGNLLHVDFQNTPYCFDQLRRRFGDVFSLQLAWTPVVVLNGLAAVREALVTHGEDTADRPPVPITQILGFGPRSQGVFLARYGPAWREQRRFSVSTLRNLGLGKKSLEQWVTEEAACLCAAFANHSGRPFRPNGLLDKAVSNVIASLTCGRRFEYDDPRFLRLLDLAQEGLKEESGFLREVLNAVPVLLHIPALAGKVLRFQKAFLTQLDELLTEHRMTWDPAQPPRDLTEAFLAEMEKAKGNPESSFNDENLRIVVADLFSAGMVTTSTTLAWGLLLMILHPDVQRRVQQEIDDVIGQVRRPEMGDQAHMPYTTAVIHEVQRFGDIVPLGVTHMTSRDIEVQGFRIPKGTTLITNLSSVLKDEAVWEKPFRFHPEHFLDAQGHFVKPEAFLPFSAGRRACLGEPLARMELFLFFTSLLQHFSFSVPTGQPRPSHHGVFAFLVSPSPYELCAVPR

[17] = target: Bromodomain-containing protein 2 (Homo sapiens, UniProt P25440); experiment: Binding affinity to human partial length BRD2 (BD1,2) (K71 to D455 residues) expressed in bacterial expression system by BROMOscan assay
Chain of Bromodomain-containing protein 2 (P25440 whole entry, the tested form may be a part): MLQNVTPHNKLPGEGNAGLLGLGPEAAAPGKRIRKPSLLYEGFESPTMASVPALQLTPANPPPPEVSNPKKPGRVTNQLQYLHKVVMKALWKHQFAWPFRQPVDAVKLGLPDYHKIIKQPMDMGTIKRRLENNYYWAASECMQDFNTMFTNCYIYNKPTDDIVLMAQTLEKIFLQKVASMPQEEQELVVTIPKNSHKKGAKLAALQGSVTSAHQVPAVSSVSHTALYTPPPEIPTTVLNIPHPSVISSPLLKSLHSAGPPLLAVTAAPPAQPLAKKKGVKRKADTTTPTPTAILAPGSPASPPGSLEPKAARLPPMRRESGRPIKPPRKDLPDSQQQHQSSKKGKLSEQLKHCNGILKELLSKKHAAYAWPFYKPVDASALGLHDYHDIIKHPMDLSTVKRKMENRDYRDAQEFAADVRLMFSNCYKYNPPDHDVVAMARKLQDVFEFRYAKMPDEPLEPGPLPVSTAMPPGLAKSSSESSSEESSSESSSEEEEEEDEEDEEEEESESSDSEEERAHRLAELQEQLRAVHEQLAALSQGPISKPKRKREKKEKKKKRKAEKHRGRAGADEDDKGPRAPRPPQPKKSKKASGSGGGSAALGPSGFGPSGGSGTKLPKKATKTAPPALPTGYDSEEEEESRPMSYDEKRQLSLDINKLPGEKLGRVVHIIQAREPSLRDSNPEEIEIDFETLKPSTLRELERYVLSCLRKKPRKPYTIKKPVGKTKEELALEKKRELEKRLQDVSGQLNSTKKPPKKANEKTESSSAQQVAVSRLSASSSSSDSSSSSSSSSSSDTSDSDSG

Kasumi 1 [18] = experiment: Antitumor activity against human Kasumi-1 cells xenografted in CB17 SCID mouse assessed as inhibition of tumor growth at 10 mg/kg, po QD for 29 days; assay type: functional; settings: Kasumi 1, po, 696 h, time 29 day, read-out: TGI
[19] = Efflux ratio of apparent permeability from basolateral side to apical side over apical side to basolateral side in human Caco2 cells; assay type: ADME, cell-based; settings: caco-2
Kasumi 1 [20] = experiment: Antitumor activity against human Kasumi-1 cells xenografted in CB17 SCID mouse assessed as inhibition of tumor growth at 10 mg/kg, po QD for 25 days; assay type: functional; settings: Kasumi 1, po, 600 h, time 25 day, read-out: TGI
[21] = Apparent permeability across basolateral to apical side in human Caco2 cells; assay type: ADME, cell-based; settings: caco-2
Mus musculus [22] = experiment: as §1, with “M-CSF” for “IL-1 beta”, “3.49” for “3.15”; assay type: functional; settings: time 21 day
Mus musculus [23] = experiment: as §1, with “IL-2” for “IL-1 beta”, “0.2” for “3.15”; assay type: functional; settings: time 21 day
[24] = Stability in rat liver microsomes assessed as half life; assay type: ADME, Microsome
Mus musculus [25] = experiment: as §1, with “MCP-1” for “IL-1 beta”, “126.24” for “3.15”; assay type: functional; settings: time 21 day
[26] = Half life in CD-1 mouse at 10 mg/kg, po; assay type: ADME, organism-based; settings: in vivo
[27] = Stability in human liver microsomes assessed as half life; assay type: ADME, Microsome
MV4-11 = experiment: Cytotoxicity against human MV4-11 cells assessed as inhibition of cell viability; assay type: functional, cell-based
CYP3A4 [28] = target: T1, CYP3A4; experiment: Inhibition of human CYP3A4 at 10 uM using midazolam as substrate relative to control; assay type: ADME; settings: probe midazolam
[29] = target: T2, Bromodomain-containing protein 3; experiment: Binding affinity to human partial length BRD3 (BD2) (G306 to P416 residues) expressed in bacterial expression system by BROMOscan assay
[30] = target: T3, Bromodomain testis-specific protein (Homo sapiens, UniProt Q58F21); experiment: Binding affinity to human partial length BRDT (BD1,2) (N21 to E382 residues) expressed in bacterial expression system by BROMOscan assay
[31] = target: T3, Bromodomain testis-specific protein; experiment: Binding affinity to human partial length BRDT (BD1) (N21 to E137 residues) expressed in bacterial expression system by BROMOscan assay
Kasumi 1 [32] = experiment: Antitumor activity against human Kasumi-1 cells xenografted in CB17 SCID mouse assessed as tumor volume at 10 mg/kg, po QD for 25 days (reference value: 2189 +/- 604 mm3); assay type: functional; settings: time 25 day
[33] = Oral bioavailability in CD-1 mouse at 10 mg/kg; assay type: ADME, organism-based; settings: mouse, in vivo, 10 mg/kg
Mus musculus [34] = experiment: as §1, with “IFN-gamma” for “IL-1 beta”, “0.78” for “3.15”; assay type: functional; settings: time 21 day
Cytochrome P450 2C19 = Cytochrome P450 2C19 (Homo sapiens, UniProt P33261); experiment: Inhibition of human CYP2C19 at 4.9 uM; assay type: ADME
Chain of Cytochrome P450 2C19 (P33261 whole entry): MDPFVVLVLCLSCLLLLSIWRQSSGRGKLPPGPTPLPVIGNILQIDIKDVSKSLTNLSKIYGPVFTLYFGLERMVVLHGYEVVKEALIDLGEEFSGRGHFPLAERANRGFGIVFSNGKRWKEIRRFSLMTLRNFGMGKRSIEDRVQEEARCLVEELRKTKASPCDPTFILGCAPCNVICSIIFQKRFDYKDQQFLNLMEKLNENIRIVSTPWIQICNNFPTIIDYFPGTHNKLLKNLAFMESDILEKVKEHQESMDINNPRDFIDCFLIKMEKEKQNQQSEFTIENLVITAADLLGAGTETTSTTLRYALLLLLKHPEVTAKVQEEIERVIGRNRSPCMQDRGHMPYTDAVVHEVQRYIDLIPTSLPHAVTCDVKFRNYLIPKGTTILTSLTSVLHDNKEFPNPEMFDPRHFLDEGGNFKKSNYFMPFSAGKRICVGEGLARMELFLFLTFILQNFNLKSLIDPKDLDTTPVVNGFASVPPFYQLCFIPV

[35] = Drug uptake in tumor tissue of CB17 SCID mouse xenografted with human Kasumi-1 cells at 40 mg/kg, po QD for 25 days and measured after 24 hrs post last dose; assay type: ADME, organism-based, Neoplasm; settings: time 25 day, read-out: Drug uptake

## Cc1noc(C)c1-c1ccc2nc(-c3cnn(CC(C)(C)O)c3)nc(N3CCOC[C@@H]3c3ccccc3)c2c1
Mus musculus [1]
  Activity: 2.06 pg
[2]
  half-life: 1.7 h
CYP3A4 [3]
  inhibition at 10 µM: < 50%
[4]
  IC50: 14 nM
Kasumi 1 [5]
  IC50: 220 nM
Mus musculus [6]
  Activity: 1.83 mm
Mus musculus [7]
  Activity: 0.5 a.u.
[8]
  IC50: 6500 nM
[9]
  Kd: 11 nM
Kasumi 1 [10]
  Activity: 1.51 g
[11]
  Activity: Non-Toxic
[12]
  Activity: Non-Toxic
Mus musculus [13]
  Activity: Active
Kasumi 1 [14]
  Activity: 1036 mm3
[15]
  Vd: 1.04 L/kg
Kasumi 1 [16]
  Activity: 0.04 g
CYP2D6
  inhibition at 10 µM: < 50%
[17]
  Kd: 87 nM
Kasumi 1 [18]
  inhibition in vivo at 10 mg/kg: 41.9%
[19]
  Ratio: 1
Kasumi 1 [20]
  inhibition in vivo at 10 mg/kg: 41.4%
[21]
  Papp: 18.4 10^-6 cm/s
Mus musculus [22]
  Activity: 2.89 pg
Mus musculus [23]
  Activity: 0.3 pg
[24]
  half-life: 0.7 h
Mus musculus [25]
  Activity: 8.48 pg
[26]
  half-life: 1.7 h
[27]
  half-life: 1.7 h
MV4-11
  IC50: 940 nM
CYP3A4 [28]
  inhibition at 10 µM: < 50%
[29]
  Kd: 44 nM
[30]
  Kd: 170 nM
[31]
  Kd: 76 nM
Kasumi 1 [32]
  Activity: 1303 mm3
[33]
  F: 75%
Mus musculus [34]
  Activity: 1.29 pg
Cytochrome P450 2C19
  inhibition (INH): Active
[35]
  concentration at 600 h: 2260 ng/g

— ChEMBL document CHEMBL4665641, “Lead optimization and efficacy evaluation of quinazoline-based BET family inhibitors for potential treatment of cancer and inflammatory diseases” (Bioorg Med Chem Lett, 2019)
